According to ChEMBL document CHEMBL4364295, “Discovery of a First-in-Class Receptor Interacting Protein 2 (RIP2) Kinase Specific Clinical Candidate, 2-((4-(Benzo[d]thiazol-5-ylamino)-6-(tert-butylsulfonyl)quinazolin-7-yl)oxy)ethyl Dihydrogen Phosphate, for the Treatment of Inflammatory Diseases” (J Med Chem, 2019):
Values after ≈ are worked out from the molar mass of the structure shown. One block for each molecule: values may come before it. Active and inactive are the calls of the source. The rule behind the calls is not given here.

What was measured:
[1] = AUC in Sprague-Dawley rat at 2 mg/kg, po by LC/MS/MS analysis; type: ADME, organism-based; settings: in vivo
[2] = Solubility of the compound in FaSSIF measured after 4 hrs; type: physicochemical
[3] = AUC in Sprague-Dawley rat assessed as 2-((4-(Benzo[d]thiazol-5-ylamino)-6-(tert-butylsulfonyl)quinazolin-7-yl)oxy)ethanol level at 2 mg/kg, po by LC/MS/MS analysis; type: ADME, organism-based; settings: in vivo
[4] = Drug uptake in po dosed Sprague-Dawley rat systemic circulation by LC/MS/MS analysis; type: ADME, organism-based; settings: in vivo
[5] = (§1) Inhibition of NOD2/TLR2 in human PBMC assessed as reduction in MDP/Pam2CSK4-induced TNFalpha production preincubated for 30 mins followed by MDP/Pam2CSK4 stimulation and measured after 6 hrs by immunoassay
Homo sapiens [6] = organism: Homo sapiens; test: as §1
Homo sapiens [7] = organism: Homo sapiens; test: Inhibition of NOD2/TLR2 in human PBMC assessed as reduction in MDP/Pam2CSK4-induced IL6 production preincubated for 30 mins followed by MDP/Pam2CSK4 stimulation and measured after 6 hrs by immunoassay
Homo sapiens [8] = organism: Homo sapiens; test: Inhibition of NOD2/TLR4 in human PBMC assessed as reduction in MDP/LPS-induced IL6 production preincubated for 30 mins followed by […] and measured after 6 hrs by immunoassay
Homo sapiens [9] = organism: Homo sapiens; test: Inhibition of NOD2/TLR5 in human PBMC assessed as reduction in MDP/flagellin-induced IL6 production preincubated for 30 mins followed by […] and measured after 6 hrs by immunoassay
Homo sapiens [10] = organism: Homo sapiens; test: Inhibition of NOD2/IL1R in human PBMC assessed as reduction in MDP/Il1alpha-induced IL6 production preincubated for 30 mins followed by […] and measured after 6 hrs by immunoassay
Homo sapiens [11] = organism: Homo sapiens; test: Inhibition of NOD2/TLR4 in human PBMC assessed as reduction in MDP/LPS-induced TNFalpha production preincubated for 30 mins followed by […] and measured after 6 hrs by immunoassay
Homo sapiens [12] = organism: Homo sapiens; test: Inhibition of NOD2/TLR5 in human PBMC assessed as reduction in MDP/flagellin-induced TNFalpha production preincubated for 30 mins followed by […] and measured after 6 hrs by immunoassay
Homo sapiens [13] = organism: Homo sapiens; test: Inhibition of NOD2/IL1R in human PBMC assessed as reduction in MDP/Il1alpha-induced TNFalpha production preincubated for 30 mins followed by […] and measured after 6 hrs by immunoassay
[14] = Prodrug conversion in Sprague-Dawley rat hepatic portal vein assessed as 2-((4-(Benzo[d]thiazol-5-ylamino)-6-(tert-butylsulfonyl)quinazolin-7-yl)oxy)ethanol formation; type: ADME; settings: in vivo
[15] = molecular target: T1, Voltage-gated inwardly rectifying potassium channel KCNH2 (Homo sapiens, UniProt Q12809); test: Inhibition of human ERG (1159 residues) expressed in CHOK1 cells at 7.3 uM at -80 mV holding potential measured after 5 mins by QPatch electrophysiology method; type: cell-based
Cytochrome P450 3A4 [16] = molecular target: T2, Cytochrome P450 3A4 (Homo sapiens, UniProt P08684); test: Inhibition of CYP3A4 (unknown origin) at 126 nM; type: ADME; settings: 0.126 µM
Cytochrome P450 3A4 [17] = molecular target: T2, Cytochrome P450 3A4; test: Time dependent inhibition of CYP3A4 (unknown origin); type: ADME
CYP3A4 = CYP3A4 (Homo sapiens, UniProt P08684); test: Ratio of IC50 for time dependent inhibition of CYP3A4 (unknown origin) in presence of NADPH to IC50 for time dependent inhibition of CYP3A4 (unknown origin) in absence of NADPH; settings: read-out: Ratio IC50
[18] = molecular target: Vascular endothelial growth factor receptor 3 (Homo sapiens) (UniProt P35916); test: Inhibition of human VEGFR3 at 1 uM using poly[Glu:Tyr] (4:1) as substrate in presence of [gamma-33P]ATP relative to control
Cricetinae = test: Displacement of [125I]2-iodomelatonin from hamster MT3 receptor at 10 uM measured after 60 mins by scintillation counting method
Mus musculus [19] = test: (§2) Antiinflammatory activity TNBS-induced mouse model of colitis assessed as decrease in colitis score at 7.5 to 145 mg/kg, po administered twice daily via gavage pretreated for 2 days followed by TNBS stimulation on day 3 and subsequent compound dosing from day 3 to 6 measured post-last dose by histological analysis; type: functional, organism-based
Mus musculus [20] = test: as §2, with “1.5” for “7.5 to 145”; type: functional, organism-based
Intestinal mucosa [21] = test: Antiinflammatory activity in crohn's disease patient derived inflamed intestinal mucosa assessed as reduction in IL1beta production at 1 uM measured after overnight incubation by immunoassay; type: functional, tissue-based; settings: Homo sapiens
Intestinal mucosa [22] = test: Antiinflammatory activity in crohn's disease patient derived inflamed intestinal mucosa assessed as reduction in IL6 production at 1 uM measured after overnight incubation by immunoassay; type: functional, tissue-based; settings: Homo sapiens
Intestinal mucosa [23] = test: Antiinflammatory activity in ulcerative colitis patient derived inflamed intestinal mucosa assessed as reduction in IL1beta production at 1 uM measured after overnight incubation by immunoassay; type: functional, tissue-based; settings: Homo sapiens
Intestinal mucosa [24] = test: Antiinflammatory activity in ulcerative colitis patient derived inflamed intestinal mucosa assessed as reduction in IL6 production at 1 uM measured after overnight incubation by immunoassay; type: functional, tissue-based; settings: Homo sapiens
[25] = Solubility of the compound in FaSSIF; type: physicochemical; settings: simulated gi fluid
[26] = Solubility of the compound in FeSSIF; type: physicochemical; settings: simulated gi fluid
[27] = molecular target: T1, Voltage-gated inwardly rectifying potassium channel KCNH2; test: Inhibition of human ERG (1159 residues) expressed in CHOK1 cells at -80 mV holding potential measured after 5 mins by QPatch electrophysiology method; type: cell-based
[28] = molecular target: T3, Receptor-interacting serine/threonine-protein kinase 2 (Homo sapiens, UniProt O43353); test: Inhibition of fluorescent-labelled ligand binding to human RIP2K preincubated for 10 mins followed by fluorescent-labelled ligand addition and measured after 10 mins by fluorescence polarization assay
[29] = molecular target: T3, Receptor-interacting serine/threonine-protein kinase 2; test: Inhibition of RIPK2 in human whole blood assessed as reduction in MDP-induced TNFalpha production preincubated for 30 mins followed by MDP-stimulation and measured after 6 hrs by immunoassay; type: tissue-based

T3 sequence (O43353 whole entry): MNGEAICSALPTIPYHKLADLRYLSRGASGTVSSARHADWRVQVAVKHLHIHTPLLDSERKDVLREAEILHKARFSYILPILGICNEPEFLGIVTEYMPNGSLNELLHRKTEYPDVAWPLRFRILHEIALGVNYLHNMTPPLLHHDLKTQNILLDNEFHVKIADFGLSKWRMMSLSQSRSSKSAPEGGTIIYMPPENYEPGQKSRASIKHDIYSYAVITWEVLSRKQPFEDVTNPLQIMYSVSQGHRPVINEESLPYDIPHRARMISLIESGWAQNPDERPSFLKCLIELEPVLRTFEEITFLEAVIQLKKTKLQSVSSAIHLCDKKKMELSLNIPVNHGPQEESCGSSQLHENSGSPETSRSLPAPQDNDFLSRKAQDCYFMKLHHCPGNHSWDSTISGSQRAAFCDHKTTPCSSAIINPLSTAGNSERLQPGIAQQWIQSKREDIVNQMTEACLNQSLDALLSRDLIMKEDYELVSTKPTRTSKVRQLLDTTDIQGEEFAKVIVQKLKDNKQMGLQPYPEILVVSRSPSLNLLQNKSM
T1 sequence (Q12809 whole entry): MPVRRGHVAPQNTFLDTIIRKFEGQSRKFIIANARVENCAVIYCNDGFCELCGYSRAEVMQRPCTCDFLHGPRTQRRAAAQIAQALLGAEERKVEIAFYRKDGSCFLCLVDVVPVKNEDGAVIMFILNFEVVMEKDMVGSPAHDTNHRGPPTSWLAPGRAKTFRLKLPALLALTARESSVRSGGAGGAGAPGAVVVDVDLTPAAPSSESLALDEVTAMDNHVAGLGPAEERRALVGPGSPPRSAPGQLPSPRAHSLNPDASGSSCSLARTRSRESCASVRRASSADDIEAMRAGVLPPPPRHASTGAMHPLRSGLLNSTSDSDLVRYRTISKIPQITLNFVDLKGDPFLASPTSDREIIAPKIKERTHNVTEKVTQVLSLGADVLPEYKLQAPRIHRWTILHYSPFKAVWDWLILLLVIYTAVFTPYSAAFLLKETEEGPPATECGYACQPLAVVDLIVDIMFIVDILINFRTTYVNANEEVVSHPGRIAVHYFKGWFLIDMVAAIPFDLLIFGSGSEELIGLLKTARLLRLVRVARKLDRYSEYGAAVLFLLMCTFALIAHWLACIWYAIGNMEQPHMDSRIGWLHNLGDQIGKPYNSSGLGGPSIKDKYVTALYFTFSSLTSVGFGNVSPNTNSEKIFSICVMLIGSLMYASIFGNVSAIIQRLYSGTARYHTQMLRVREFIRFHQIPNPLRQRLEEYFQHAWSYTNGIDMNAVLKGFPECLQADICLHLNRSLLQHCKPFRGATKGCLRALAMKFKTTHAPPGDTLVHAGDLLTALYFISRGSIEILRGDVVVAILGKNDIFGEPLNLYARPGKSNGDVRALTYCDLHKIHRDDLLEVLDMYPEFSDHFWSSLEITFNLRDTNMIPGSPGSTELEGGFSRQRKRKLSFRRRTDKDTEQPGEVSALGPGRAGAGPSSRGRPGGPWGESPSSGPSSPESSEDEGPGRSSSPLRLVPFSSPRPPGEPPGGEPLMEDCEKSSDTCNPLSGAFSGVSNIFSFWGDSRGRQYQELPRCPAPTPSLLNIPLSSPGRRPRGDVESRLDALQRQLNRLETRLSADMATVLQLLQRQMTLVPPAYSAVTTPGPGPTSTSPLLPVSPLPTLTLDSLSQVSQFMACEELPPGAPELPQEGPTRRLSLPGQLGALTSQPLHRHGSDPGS
T2 sequence (P08684 whole entry): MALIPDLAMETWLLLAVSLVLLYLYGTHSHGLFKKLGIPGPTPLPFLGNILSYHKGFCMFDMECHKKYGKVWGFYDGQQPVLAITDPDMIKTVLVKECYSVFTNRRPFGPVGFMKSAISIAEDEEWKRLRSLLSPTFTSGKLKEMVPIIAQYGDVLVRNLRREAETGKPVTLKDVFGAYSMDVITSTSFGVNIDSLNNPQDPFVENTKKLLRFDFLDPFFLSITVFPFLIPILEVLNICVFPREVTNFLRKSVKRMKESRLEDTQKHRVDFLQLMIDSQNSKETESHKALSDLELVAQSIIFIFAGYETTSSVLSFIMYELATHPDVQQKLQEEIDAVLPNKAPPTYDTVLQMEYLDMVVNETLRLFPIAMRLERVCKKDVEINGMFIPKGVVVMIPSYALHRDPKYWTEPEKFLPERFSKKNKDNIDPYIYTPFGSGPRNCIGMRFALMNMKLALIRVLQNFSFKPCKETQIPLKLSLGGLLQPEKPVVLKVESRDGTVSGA
Chain of Vascular endothelial growth factor receptor 3 (Homo sapiens) (P35916 whole entry): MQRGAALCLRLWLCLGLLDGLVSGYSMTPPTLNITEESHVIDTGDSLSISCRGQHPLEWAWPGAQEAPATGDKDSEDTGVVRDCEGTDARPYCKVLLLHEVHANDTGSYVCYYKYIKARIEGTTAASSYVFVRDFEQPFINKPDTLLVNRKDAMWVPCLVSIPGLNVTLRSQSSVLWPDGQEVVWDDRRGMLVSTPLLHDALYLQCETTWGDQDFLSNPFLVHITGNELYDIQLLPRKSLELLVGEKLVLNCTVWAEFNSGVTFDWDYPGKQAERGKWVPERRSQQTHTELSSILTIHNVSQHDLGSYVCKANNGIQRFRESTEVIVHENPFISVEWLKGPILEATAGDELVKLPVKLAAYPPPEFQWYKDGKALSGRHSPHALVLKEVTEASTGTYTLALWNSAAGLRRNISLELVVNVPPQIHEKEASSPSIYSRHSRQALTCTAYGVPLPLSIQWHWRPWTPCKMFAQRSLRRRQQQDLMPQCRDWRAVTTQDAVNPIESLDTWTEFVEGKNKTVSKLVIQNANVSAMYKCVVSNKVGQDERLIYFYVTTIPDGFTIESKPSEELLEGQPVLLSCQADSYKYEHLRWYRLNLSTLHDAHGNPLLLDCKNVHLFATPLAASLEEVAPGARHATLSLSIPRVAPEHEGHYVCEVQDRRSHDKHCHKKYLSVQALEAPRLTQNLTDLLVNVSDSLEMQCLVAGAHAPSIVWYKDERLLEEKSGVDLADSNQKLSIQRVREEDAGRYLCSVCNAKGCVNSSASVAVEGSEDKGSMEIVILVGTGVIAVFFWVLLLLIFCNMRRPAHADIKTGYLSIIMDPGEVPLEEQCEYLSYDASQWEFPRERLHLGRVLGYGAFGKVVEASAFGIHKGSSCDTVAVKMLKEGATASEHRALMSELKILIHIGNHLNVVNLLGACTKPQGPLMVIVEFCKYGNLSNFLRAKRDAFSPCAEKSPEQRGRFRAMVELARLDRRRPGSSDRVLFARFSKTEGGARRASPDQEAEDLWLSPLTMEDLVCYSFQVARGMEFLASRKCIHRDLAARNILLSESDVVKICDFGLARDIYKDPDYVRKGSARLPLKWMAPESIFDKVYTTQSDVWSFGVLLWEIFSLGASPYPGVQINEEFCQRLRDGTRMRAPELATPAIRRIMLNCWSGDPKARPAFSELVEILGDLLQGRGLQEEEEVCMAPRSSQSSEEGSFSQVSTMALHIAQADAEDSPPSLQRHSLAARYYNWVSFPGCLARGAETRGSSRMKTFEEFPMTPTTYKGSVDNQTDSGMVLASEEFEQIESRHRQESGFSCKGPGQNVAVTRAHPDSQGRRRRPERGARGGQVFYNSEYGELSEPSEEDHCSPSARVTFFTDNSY
Chain of CYP3A4 (P08684 whole entry): as the sequence (P08684 whole entry) above

- AUC [1]: 10 ng·h/mL
- solubility at 4 h [2]: 12 µg/mL (≈ 22.7 µM)
- AUC [3]: 10 ng·h/mL
- Drug uptake [4]: Not Active
Compound: CN(C)C(=O)OCCOc1cc2ncnc(Nc3ccc4scnc4c3)c2cc1S(=O)(=O)C(C)(C)C

- IC50 [5]: 0.025 µM
- inhibition (Homo sapiens [6]): Dose-dependent effect
- inhibition (Homo sapiens [7]): Active
- inhibition (Homo sapiens [8]): Active
- inhibition (Homo sapiens [9]): Active
- inhibition (Homo sapiens [10]): Active
- inhibition (Homo sapiens [11]): Active
- inhibition (Homo sapiens [12]): Active
- inhibition (Homo sapiens [13]): Active
Compound: CC(C)S(=O)(=O)c1ccc2nccc(Nc3n[nH]c4ccc(F)cc34)c2c1

- AUC [3]: 730 ng·h/mL
- Drug uptake [4]: Not Active
- Drug metabolism [14]: Metabolite_Detected
- inhibition (INH) (Cytochrome P450 3A4 [16]): Active
- inhibition (INH) (Cytochrome P450 3A4 [17]): Active
Compound: CC(C)[C@H](N)C(=O)OCCOc1cc2ncnc(Nc3ccc4scnc4c3)c2cc1S(=O)(=O)C(C)(C)C
- inhibition (INH) [15]: Active
- IC50 shift (CYP3A4): 2.9

- inhibition [18]: > 90%
- inhibition (Cricetinae): Active
Compound: CC(C)(C)S(=O)(=O)c1cc2c(Nc3ccc4scnc4c3)ncnc2cc1OCCOP(=O)(O)O
- Activity (Mus musculus [19]): Active

Compound: C[C@]12C=CC(=O)C=C1CC[C@@H]1[C@@H]2[C@@H](O)C[C@@]2(C)[C@H]1CC[C@]2(O)C(=O)CO
- Activity (Mus musculus [20]): Active
- Activity (Intestinal mucosa [21]): Active
- Activity (Intestinal mucosa [22]): Active
- Activity (Intestinal mucosa [23]): Active
- Activity (Intestinal mucosa [24]): Active

- solubility at 4 h [2]: 2460 µg/mL
- Drug uptake [4]: Not Active
Compound: CC(C)(C)S(=O)(=O)c1cc2c(Nc3ccc4scnc4c3)ncnc2cc1OCCOS(=O)(=O)[O-].[Na+]

- solubility [25]: Soluble
- solubility [26]: Soluble
Compound: CC(C)(C)S(=O)(=O)c1cc2c(Nc3ccc4scnc4c3)ncnc2cc1OCCOP(=O)(O)O.Cl

- solubility [25]: Soluble
- solubility [26]: Soluble
Compound: CC(C)(C)S(=O)(=O)c1cc2c(Nc3ccc4scnc4c3)ncnc2cc1OCCOP(=O)([O-])[O-].[Na+].[Na+]

- solubility at 4 h [2]: 690 µg/mL
Compound: CC(C)[C@H](N)C(=O)OCCOc1cc2ncnc(Nc3ccc4scnc4c3)c2cc1S(=O)(=O)C(C)(C)C.Cl.Cl

- IC50 [28]: 0.004 µM
- IC50 [29]: 0.374 µM
Compound: COc1cc2ncnc(Nc3ccc4scnc4c3)c2cc1S(=O)(=O)C(C)(C)C
- IC50 [27]: > 30 µM
